Test [1] relates to C57 mice. The test is described as follows: In vivo cardioprotection assay, Langendorff global ischemia/reperfusion, mice. The note with it: oral, 60 min reperfusion; for reduced area of the infarct compared to vehicle control: 4 h after dosing, 30 min global ischemia. As for the experimental part:
(§1) Example C In Vivo Cardioprotection Assay
(§2) PHD inhibitor or vehicle was administered orally to 8-week old male C57 mice or Sprague Dawley rats. Four hours after dosing, hearts were removed quickly and perfused in a retrograde manner with modified Krebs-Henseleit buffer in a Langendorff apparatus at constant pressure (80 mmHg). To measure infarct size, hearts were first perfused for 20 min to reach equilibrium and then subjected to a 30-minute global ischemia (no-flow) period followed by a 60-min reperfusion period in mice or 90-min reperfusion in rats. The ventricles were cut transversely into 5 sections. The slices were stained 1% 2,3,5-triphenyl tetrazolium chloride (TTC) and scanned to measure the infarct area and the total area. Cardiac injury was assessed by measuring lactate dehydrogenase (LDH) release to coronary effluent during the 60-min reperfusion period (in mice only). The amount of LDH release was determined using an LDH activity assay kit (MBL International Corp.) as expressed as % of vehicle treated hearts.

Test [2] has as its system Sprague Dawley rats. The test is described as follows: In vivo cardioprotection assay, Langendorff global ischemia/reperfusion, rats. The note with it: oral, 5 mg/kg, 30 min global ischemia, 90 min reperfusion. As for the experimental part: as §1, §2
Test [3] deals with VEGF. The test is described as follows: Heart gene changes for vascular endothelial growth factor (VEGF), qRT-PCR. The note with it: 60 mg/kg; for VEGF % Increase Compared to Control: male C57BL/6 mice, oral, heart, 2 h after dosing. It counts as in vivo, mice. As for the experimental part:
Example D Determination of Heart Gene Changes for Vascular Endothelial Growth Factor (VEGF)
PHD inhibitor or vehicle were administered orally to male C57BL/6 in groups of four. The compounds were formulated in 30% hydroxypropyl beta-cyclodextrin in 50 mM Sodium Phosphate pH7.4 at doses of 30 mg/kg and 60 mg/kg. Two hours after dosing the mice were euthanized by CO2 and the hearts were removed quickly, sectioned into 2 pieces; the lower (apical) section was snap frozen and stored at −80° C. and analyzed for VEGF gene changes applying qRT-PCR and using Life Technologies #4392938 and an RNA extraction protocol using Qiagen #74881 RNeasy 96 Universal Tissue Kit. Standards are made from RNA from combined vehicle treated animals at a concentration of 100 μg/mL, a 7 point curve is made with 1:4 dilutions and a blank. Samples are run on using RNA-to-CT 1-Step method using a StepOnePlus Real-Time PCR System from Applied Biosystems Relative quantitation is expressed by dividing the quantity of VEGF by the quantity of the reference gene. Treatment groups and vehicle control were combined and averaged.

The target in test [4] is PHD2 enzyme (residues 181-417) (Homo sapiens (Human), UniProt Q9GZT9). The test is described as follows: Inhibition of PHD enzyme (LC/MS peptide hydroxylation assay). It counts as biochemical. As to conditions: PHD2 (residues 181-417) 5 nM, 60 min pre-incubation, -log(IC50), IC50 molar. The procedure, abridged: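 Hydroxylated peptide quantified by LC/MS after 60 min turnover of 1 uM biotinylated peptide with 2 uM 2-oxoglutarate and 1 mM ascorbate, stopped by excess tight-binding inhibitor. Beforehand, 5 nM enzyme and compound were preincubated 60 min at RT, pH 7.3 HEPES/KCl/TCEP/FeCl2/BSA buffer. Values as pIC50 (−log molar IC50).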
Chain of PHD2 enzyme (residues 181-417) (Q9GZT9 181-417): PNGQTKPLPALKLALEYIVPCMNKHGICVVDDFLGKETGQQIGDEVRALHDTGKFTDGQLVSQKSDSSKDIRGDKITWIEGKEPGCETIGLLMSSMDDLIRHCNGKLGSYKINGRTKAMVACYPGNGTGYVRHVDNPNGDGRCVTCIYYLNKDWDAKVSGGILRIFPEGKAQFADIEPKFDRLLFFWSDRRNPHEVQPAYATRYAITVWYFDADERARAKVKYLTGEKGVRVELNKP

Test [5] has as its system HIF1a protein in H9c2 rat cardiomyocytes. The test is described as follows: Cell-based HIF-alpha stabilization assay (inhibition of PHD in cells). The note with it: 24 hrs compound incubation, HIF1a protein by ELISA; for EC50: Rattus norvegicus, H9c2, 24 h, read-out: Inhibition of PHD in cells (pEC50) (converted). The method in brief:
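HIF1a stabilization was measured by ELISA on lysates of H9c2 rat cardiomyocytes after 24 h exposure to 11 serial compound concentrations, expressed relative to the desferrioxamine maximum. Curve fits gave EC50. EC50pos denotes the concentration producing half the desferrioxamine maximal response.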
(An ELISA detects its analyte on a solid surface through an enzyme-linked reagent.)

Structures are written as SMILES.

Regarding `CCN1CCN(C(=O)c2ccc(-n3ncc(-c4ccc(C#N)cc4C)c3O)nc2)CC1` [Example 282, 4-(1-(5-(4-ethylpiperazine-1-carbonyl)pyridin-2-yl)-5-hydroxy-1H-pyrazol-4-yl)-3-methylbenzonitrile], the “reduction of LDH released to the coronary effluent” value was 51% in test [1] (10 mg/kg) and 56% in test [1] (30 mg/kg). In addition, the “reduced area of the infarct compared to vehicle control” value came to 50% in test [1] (10 mg/kg) and 59% in test [1] (30 mg/kg). The “reduced area of the infarct” value in test [2] is on record as 30%. Also, in test [3] (mouse heart), the “greater VEGF mRNA production compared to the compound of Example R1” value worked out at 2 fold. For the same compound, the “VEGF % Increase Compared to Control” value in test [3] worked out at 203.1%. Besides, the “PHD Inhibition (pIC50)” value in test [4] was found to be 8.00. Also, the EC50 in test [5] is 575 nM.

Regarding `CC(C)(C)NC(=O)c1ccc(-n2ncc(-c3cccnc3)c2O)nc1` [Example R1, N-tert-butyl-6-(5-oxo-4-pyridin-3-yl-2,5-dihydro-1H-pyrazol-1-yl)pyridine-3-carboxamide, reference compound], the “VEGF % Increase Compared to Control” value in test [3] stood at 95.2%. The EC50 in test [5] was 955 nM.

Regarding `COCCC(C)(C)NC(=O)c1ccc(-n2ncc(-c3ccc(C#N)cc3)c2O)nc1` [Example 175, 6-(4-(4-cyanophenyl)-5-hydroxy-1H-pyrazol-1-yl)-N-(4-methoxy-2-methylbutan-2-yl)nicotinamide], the “PHD Inhibition (pIC50)” value in test [4] is 7.37. The EC50 in test [5] is 490 nM.

Take `Cc1cc(C#N)ccc1-c1cnn(-c2ccc(C(=O)N[C@@H]3CCOC3)cn2)c1O` [Example 137, (R)-6-(4-(4-cyano-2-methylphenyl)-5-hydroxy-1H-pyrazol-1-yl)-N-(tetrahydrofuran-3-yl)nicotinamide]: the “PHD Inhibition (pIC50)” value in test [4] came out at 7.21. Further, the EC50 in test [5] was 245 nM.

Consider `CCC(CC)N1CCN(C(=O)c2ccc(-n3ncc(-c4ccc(C#N)cc4C)c3O)nc2)CC1` [Example 369, 4-(5-hydroxy-1-(5-(4-(pentan-3-yl)piperazine-1-carbonyl)pyridin-2-yl)-1H-pyrazol-4-yl)-3-methylbenzonitrile], for which the “PHD Inhibition (pIC50)” value in test [4] was found to be 7.701. The EC50 in test [5] is 1200 nM.

For the compound `Cc1c(-c2cnn(-c3ccc(C(=O)N4CCC[C@H](N(C)CC(F)(F)F)C4)cn3)c2O)ccc(C#N)c1F` [Example 332, (S)-2-fluoro-4-(5-hydroxy-1-(5-(3-(methyl(2,2,2-trifluoroethyl)amino)piperidine-1-carbonyl)pyridin-2-yl)-1H-pyrazol-4-yl)-3-methylbenzonitrile], the “PHD Inhibition (pIC50)” value in test [4] is 8.47. The EC50 in test [5] was 759 nM.

Turning to `Cc1c(-c2cnn(-c3ccc(C(=O)N4CCCC4)cn3)c2O)ccc(C#N)c1F` [Example 325, 2-fluoro-4-(5-hydroxy-1-(5-(pyrrolidine-1-carbonyl)pyridin-2-yl)-1H-pyrazol-4-yl)-3-methylbenzonitrile], in test [4], the “PHD Inhibition (pIC50)” value amounted to 8.44. Besides, the EC50 in test [5] was 977 nM.

As for `Cc1cc(C#N)ccc1-c1cnn(-c2ccc(C(=O)N3CCN(CCN(C)C)CC3)cn2)c1O` [Example 423, 4-(1-(5-(4-(2-(dimethylamino)ethyl)piperazine-1-carbonyl)pyridin-2-yl)-5-hydroxy-1H-pyrazol-4-yl)-3-methylbenzonitrile], the “PHD Inhibition (pIC50)” value in test [4] worked out at 7.99. Besides, the EC50 in test [5] is 708 nM.

Regarding `Cc1c(-c2cnn(-c3ccc(C(=O)N4CCN(C)[C@H](C)C4)cn3)c2O)ccc(C#N)c1F` [Example 340, (R)-4-(1-(5-(3,4-dimethylpiperazine-1-carbonyl)pyridin-2-yl)-5-hydroxy-1H-pyrazol-4-yl)-2-fluoro-3-methylbenzonitrile], the “PHD Inhibition (pIC50)” value in test [4] was 8.39. Also, the EC50 in test [5] is 759 nM.

As for `Cc1cc(C#N)ccc1-c1cnn(-c2ccc(C(=O)N[C@H]3CC[C@H](O)CC3)cn2)c1O` [Example 132, 6-(4-(4-cyano-2-methylphenyl)-5-hydroxy-1H-pyrazol-1-yl)-N-((1r,4r)-4-hydroxycyclohexyl)nicotinamide], in test [4], the “PHD Inhibition (pIC50)” value is 7.26. Moreover, the “Inhibition of PHD in cells (pEC50)” value in test [5] worked out at 6.59.

As to `O=C(NCC1CCOCC1)c1ccc(-n2ncc(-n3ccc(=O)cc3)c2O)nc1` [Example 190, 6-(5-hydroxy-4-(4-oxopyridin-1(4H)-yl)-1H-pyrazol-1-yl)-N-((tetrahydro-2H-pyran-4-yl)methyl)nicotinamide], in test [4], the “PHD Inhibition (pIC50)” value was found to be 7. Moreover, the EC50 in test [5] was 15800 nM.

Consider `Cc1cc(C#N)ccc1-c1cnn(-c2ccc(C(=O)N3CCN(C)CC(F)(F)C3)cn2)c1O` [Example 299, 4-(1-(5-(6,6-difluoro-4-methyl-1,4-diazepane-1-carbonyl)pyridin-2-yl)-5-hydroxy-1H-pyrazol-4-yl)-3-methylbenzonitrile], for which the “PHD Inhibition (pIC50)” value in test [4] is on record as 8.46. Also, the EC50 in test [5] is 1050 nM.

Turning to `Cc1cc(C#N)ccc1-c1cnn(-c2ccc(C(=O)NCC3CCCO3)cn2)c1O` (centres unmarked) [Example 133, 6-(4-(4-cyano-2-methylphenyl)-5-hydroxy-1H-pyrazol-1-yl)-N-((tetrahydrofuran-2-yl)methyl)nicotinamide], the “PHD Inhibition (pIC50)” value in test [4] was determined as 7.17. Besides, the EC50 in test [5] was 195 nM.

With `COc1cc(-c2cnn(-c3ccc(C(=O)NCC4CCN(C)CC4)cn3)c2O)ccn1` [Example 30, 6-(5-hydroxy-4-(2-methoxypyridin-4-yl)-1H-pyrazol-1-yl)-N-((1-methylpiperidin-4-yl)methyl)nicotinamide], the “PHD Inhibition (pIC50)” value in test [4] is given as 7.5. Also, the EC50 in test [5] was 2000 nM.

As for `COCCCNC(=O)c1ccc(-n2ncc(-c3cc(C)nc(OC)c3)c2O)nc1` [Example 214, 6-(5-hydroxy-4-(2-methoxy-6-methylpyridin-4-yl)-1H-pyrazol-1-yl)-N-(3-methoxypropyl)nicotinamide], the IC50 in test [4] (read-out: PHD Inhibition (pIC50) (converted)) was 174 nM. The EC50 in test [5] was 2820 nM.

For `Cc1cc(C#N)ccc1-c1cnn(-c2ccc(C(=O)N3CCC[C@H]3CN3CCCC3)cn2)c1O` [Example 348, (S)-4-(5-hydroxy-1-(5-(2-(pyrrolidin-1-ylmethyl)pyrrolidine-1-carbonyl)pyridin-2-yl)-1H-pyrazol-4-yl)-3-methylbenzonitrile], the “PHD Inhibition (pIC50)” value in test [4] came out at 7.72. Moreover, in test [5], the EC50 was 741 nM.

As to `Cc1cc(C#N)ccc1-c1cnn(-c2ccc(C(=O)NCCCn3cccn3)cn2)c1O` [Example 141], the “PHD Inhibition (pIC50)” value in test [4] was found to be 8.3. Moreover, the EC50 in test [5] is 407 nM.

In the case of `CCCNC(=O)c1ccc(-n2ncc(-c3ccc(C#N)cc3C)c2O)nc1` [Example 60, 6-(4-(4-cyano-2-methylphenyl)-5-hydroxy-1H-pyrazol-1-yl)-N-propylnicotinamide], in test [4], the “PHD Inhibition (pIC50)” value was determined as 7.14. In addition, in test [5], the EC50 is 200 nM.

As to `COc1cc(C#N)ccc1-c1cnn(-c2ccc(C(=O)NCc3ccccc3)cn2)c1O` [Example 195, N-benzyl-6-(4-(4-cyano-2-methoxyphenyl)-5-hydroxy-1H-pyrazol-1-yl)nicotinamide], the “PHD Inhibition (pIC50)” value in test [4] is 7.01. In addition, the EC50 in test [5] is 2510 nM.

Regarding `COc1cc(-c2cnn(-c3ccc(C(=O)NCCC(C)OC)cn3)c2O)ccn1` (centres unmarked) [Example 50, 6-(5-hydroxy-4-(2-methoxypyridin-4-yl)-1H-pyrazol-1-yl)-N-(3-methoxybutyl)nicotinamide], the “PHD Inhibition (pIC50)” value in test [4] came out at 8.1. The EC50 in test [5] is 871 nM.

Source of the values: patent US10407409B2, “6-(5-hydroxy-1H-pyrazol-1-yl)nicotinamide inhibitors of PHD” (Takeda Pharmaceutical Company Limited, priority 2013, dated 2019).
